# Test results as given in patent US10059722B2, “Cephalosporin derivatives and methods of use” (priority 2012, dated 2018).
# Read-outs that look alike come from different tables or passages of the source.
# Experiments:
# [1] = system: non-replicating M. tuberculosis; assay: microbe, parasite or virus in culture; format: cell-based, Mycobacterium tuberculosis; conditions: Mycobacterium tuberculosis
# HepG2 cells = format: cell-based; conditions: human, 2 day
# Description: Three lead compounds were identified in the first round of high throughput screening (700 compounds), which had minimal inhibitory concentrations (MIC) of 0.4-0.8 μg/mL after a six day exposure to drug (NRd6) in the model of non-replication at pH 5.0, and LD50's of 100 to >100 μg/mL against HepG2 cells (a 2 day exposure).
# Furthermore, LD50 values were determined using a human hepatoma cell line (HepG2) using intracellular ATP levels as a measurement that correlated with cellular viability.
# [2] = system: replicating M. tuberculosis; assay: MIC under replication (R) conditions; format: cell-based, Mycobacterium tuberculosis; conditions: Mycobacterium tuberculosis
# [3] = read-out: MIC NR at 0.01 Inoc. and 3 Day Exposure to Drug, 7 Day Outgrowth, Table 8, ranges from multiple assays
# [4] = read-out: MIC NR at 0.01 Inoc. and 3 Day Exposure to Drug, 11 Day Outgrowth, Table 8, ranges from multiple assays
# [5] = 72 h, Table 9, 3 Day Exposure to Drug, read-out: MIC NR 0.01 Inoc.
# [6] = 72 h, Table 9, 3 Day Exposure to Drug, read-out: MIC NR 0.1 Inoc.
# [7] = 3,4-olefinic isomers, read-out: minimum inhibitory concentration against non-replicating M. tuberculosis
# [8] = read-out: minimum inhibitory concentration against replicating M. tuberculosis
structure (smiles),measurement,setting,value
CC1=C(C(=O)OCc2ccccc2)N2C(=O)[C@@H](NC(=O)CCc3ccc(Cl)cc3)[C@H]2SC1 [Compound 100],MIC,[1]; [3],0.39 µg/mL
same,MIC,[1]; [4],0.78 µg/mL
same,HepG2 Toxicity LD50,HepG2 cells,50 µg/mL
COc1ccc(CCC(=O)N[C@@H]2C(=O)N3C(C(=O)OCc4ccccc4)=C(C)CS[C@H]23)cc1 [Compound 101],MIC,[1]; [3],0.39 µg/mL
same,MIC,[1]; [4],0.78 µg/mL
same,HepG2 Toxicity LD50,HepG2 cells,>100 µg/mL
CC1=C(C(=O)OCc2ccccc2)N2C(=O)[C@@H](NC(=O)COc3ccc(Cl)cc3)[C@H]2SC1 [Compound 102],MIC,[1]; [3],0.78 µg/mL
same,MIC,[1]; [4],1.56 µg/mL
same,HepG2 Toxicity LD50,HepG2 cells,>100 µg/mL
COc1ccc(OCC(=O)N[C@@H]2C(=O)N3C(C(=O)OCc4ccccc4)=C(C)CS[C@H]23)cc1 [Compound 103],MIC,[1]; [3],0.78 µg/mL
same,MIC,[1]; [4],1.56 µg/mL
same,HepG2 Toxicity LD50,HepG2 cells,>100 µg/mL
CC1=C(C(=O)OCc2ccccc2)N2C(=O)[C@@H](NC(=O)COc3ccccc3)[C@H]2SC1 [Compound 104],MIC,[1]; [3],1.56 µg/mL
same,MIC,[1]; [4],3.13 µg/mL
same,HepG2 Toxicity LD50,HepG2 cells,>100 µg/mL
C#CCOC(=O)N[C@@H]1C(=O)N2C(C(=O)OCC#C)=C(C)CS[C@H]12 [Compound 105],MIC,[1]; [3],6.25 µg/mL
same,MIC,[1]; [4],12.5 µg/mL
same,HepG2 Toxicity LD50,HepG2 cells,>100 µg/mL
C#CCOC(=O)C1=C(C)CS[C@@H]2[C@H](N(CC#C)CC#C)C(=O)N12 [Compound 106],MIC,[1]; [3],12.5 µg/mL
same,MIC,[1]; [4],25 µg/mL
same,HepG2 Toxicity LD50,HepG2 cells,100 µg/mL
C=CC1=C(C(=O)O)N2C(=O)[C@@H](NC(=O)/C(=N\O)c3csc(N)n3)[C@H]2SC1 [Compound 107],MIC,[1]; [3],50 µg/mL
same,MIC,[1]; [4],50 µg/mL
same,HepG2 Toxicity LD50,HepG2 cells,>100 µg/mL
COc1ccc(CCC(=O)N[C@@H]2C(=O)N3C(C(=O)O)=C(C)CS[C@H]23)cc1 [Compound 108],MIC,[1]; [5],> 100 µg/mL
same,MIC,[1]; [6],> 100 µg/mL
same,HepG2 LD50,HepG2 cells,>100 µg/mL
same,MIC,"[2]; Table 9, read-out: MIC R",> 100 µg/mL
CC1=C(C(=O)O)N2C(=O)[C@@H](NC(=O)COc3ccccc3)[C@H]2SC1 [Compound 109],MIC,[1]; [5],100 µg/mL
same,MIC,[1]; [6],> 100 µg/mL
same,HepG2 LD50,HepG2 cells,>100 µg/mL
same,MIC,"[2]; Table 9, read-out: MIC R",> 100 µg/mL
CCCCOc1ccc(CCC(=O)N[C@@H]2C(=O)N3C(C(=O)O)=C(C)CS[C@H]23)cc1 [Compound 110],MIC,[1]; [5],100 µg/mL
same,MIC,[1]; [6],> 100 µg/mL
same,HepG2 LD50,HepG2 cells,>100 µg/mL
same,MIC,"[2]; Table 9, read-out: MIC R",100 µg/mL
CC1=C(C(=O)O)N2C(=O)[C@@H](NC(=O)CCc3ccc(Br)cc3)[C@H]2SC1 [Compound 111],MIC,[1]; [5],> 100 µg/mL
same,MIC,[1]; [6],> 100 µg/mL
same,HepG2 LD50,HepG2 cells,>100 µg/mL
same,MIC,"[2]; Table 9, read-out: MIC R",100 µg/mL
CC1=C(C(=O)O)N2C(=O)[C@@H](NS(=O)(=O)Cc3ccccc3)[C@H]2SC1 [Compound 112],MIC,[1]; [5],> 100 µg/mL
same,MIC,[1]; [6],> 100 µg/mL
same,HepG2 LD50,HepG2 cells,>100 µg/mL
same,MIC,"[2]; Table 9, read-out: MIC R",> 100 µg/mL
CC1=C(C(=O)O)N2C(=O)[C@@H](NC(=O)CCc3ccc(F)cc3)[C@H]2SC1 [Compound 113],MIC,[1]; [5],> 100 µg/mL
same,MIC,[1]; [6],> 100 µg/mL
same,HepG2 LD50,HepG2 cells,>100 µg/mL
same,MIC,"[2]; Table 9, read-out: MIC R",100 µg/mL
CC1=C(C(=O)O)N2C(=O)[C@@H](NC(=O)c3ccc(Cl)cc3)[C@H]2SC1 [Compound 114],MIC,[1]; [5],> 100 µg/mL
same,MIC,[1]; [6],> 100 µg/mL
same,HepG2 LD50,HepG2 cells,>100 µg/mL
same,MIC,"[2]; Table 9, read-out: MIC R",> 100 µg/mL
CC1=C(C(=O)O)N2C(=O)[C@@H](NC(=O)Cc3ccc(Cl)cc3)[C@H]2SC1 [Compound 115],MIC,[1]; [5],> 100 µg/mL
same,MIC,[1]; [6],> 100 µg/mL
same,HepG2 LD50,HepG2 cells,>100 µg/mL
same,MIC,"[2]; Table 9, read-out: MIC R",100 µg/mL
CC1=C(C(=O)O)N2C(=O)[C@@H](NC(=O)CCc3ccccc3Cl)[C@H]2SC1 [Compound 116],MIC,[1]; [5],> 100 µg/mL
same,MIC,[1]; [6],> 100 µg/mL
same,HepG2 LD50,HepG2 cells,>100 µg/mL
same,MIC,"[2]; Table 9, read-out: MIC R",> 100 µg/mL
CCCNC(=O)C1=C(C)CS[C@@H]2[C@H](NC(=O)CCc3ccc(OC)cc3)C(=O)N12 [Compound 117],MIC,[1]; [5],100 µg/mL
same,MIC,[1]; [6],> 100 µg/mL
same,HepG2 LD50,HepG2 cells,>100 µg/mL
same,MIC,"[2]; Table 9, read-out: MIC R",> 100 µg/mL
CCCCOC(=O)C1=C(C)CS[C@@H]2[C@H](NC(=O)COc3ccccc3)C(=O)N12 [Compound 118],MIC,[1]; [7],3.1 µg/mL
same,MIC,[2]; [8],100 µg/mL
CCCCOC(=O)C1C(C)=CS[C@@H]2[C@H](NC(=O)COc3ccccc3)C(=O)N12 (some centres unmarked) [Compound 119],MIC,[1]; [7],3.1 µg/mL
same,MIC,[2]; [8],100 µg/mL
